Assays:
5-HT2C receptor [1] = target: T1, 5-HT2C receptor (Homo sapiens, UniProt P28335); assay: Binding to 5-HT2C receptor, [3H]-5-HT, Method (a); parameters: expressed in transfected cells; host or cells: CHO cell line; conditions: CHO cell line, read-out: Ki (2C)
T1 sequence (P28335 33-458): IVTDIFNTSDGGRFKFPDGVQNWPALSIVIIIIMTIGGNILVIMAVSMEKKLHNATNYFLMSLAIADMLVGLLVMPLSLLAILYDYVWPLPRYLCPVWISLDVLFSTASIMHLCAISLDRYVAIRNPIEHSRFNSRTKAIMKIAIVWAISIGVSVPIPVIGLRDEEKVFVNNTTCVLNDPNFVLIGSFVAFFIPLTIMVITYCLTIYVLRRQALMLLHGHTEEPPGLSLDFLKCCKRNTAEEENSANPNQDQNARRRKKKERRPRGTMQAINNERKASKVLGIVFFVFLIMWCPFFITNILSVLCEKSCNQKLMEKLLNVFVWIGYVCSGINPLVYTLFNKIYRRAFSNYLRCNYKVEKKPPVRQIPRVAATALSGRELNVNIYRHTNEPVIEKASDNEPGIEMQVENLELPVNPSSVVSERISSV
Protocol: (§1) The binding of compounds of formula (I) to serotonin receptors was determined in vitro by standard methods. The preparations were investigated in accordance with the assays given hereinafter.
Method (a): For the binding to the 5-HT2C receptor the 5-HT2C receptors were radiolabeled with [^3H]-5-HT. The affinity of the compounds for 5-HT2C receptors in a CHO cell line was determined according to the procedure of D. Hoyer, G. Engel and H. O. Kalkman, European J. Pharmacol., 1985, 118, 13–23.

5-HT2C receptor [2] = target: T1, 5-HT2C receptor; assay: Functional activity, FLIPR calcium assay, h5-HT2C; type: cell-based; parameters: expressed in transfected cells; host or cells: CHO cells; conditions: for EC50: CHO cells expressing human 5-HT2C, FLIPR; for h5-HT2C Rel. Eff.: relative to response of 10 μM 5-HT (defined as 100%)
Protocol: (§2) The functional activity of compounds of formula (I) was assayed using a Fluorimetric Imaging Plate reader (FLIPR). CHO cells expressing the human 5-HT2C or human 5-HT2A receptors were counted and plated into standard 96 well microtitre plates on the day before testing to give a confluent monolayer. The cells were then dye loaded with the calcium sensitive dye, Fluo-3-AM. Unincorporated dye was removed using an automated cell washer to leave a total volume of 100 μL/well of assay buffer (Hanks balanced salt solution containing 20 mM Hepes and 2.5 mM probenecid). The drug (dissolved in 50 μL of the assay buffer) was added at a rate of 70 μL/sec to each well of the FLIPR 96 well plate during fluorescence measurements. The measurements were taken at 1 sec intervals and the maximum fluorescent signal was measured (approx 10–15 secs after drug addition) and compared with the response produced by 10 μM 5-HT (defined as 100%) to which it was expressed as a percentage response (relative efficacy). Dose response curves were constructed using Graphpad Prism (Graph Software Inc.).

5-HT2A receptor [3] = target: T2, 5-HT2A receptor (Homo sapiens, UniProt P28223); assay: Binding to 5-HT2A receptor, [125I]-DOI, Method (c); parameters: expressed in transfected cells; host or cells: CHO cell line; conditions: CHO cell line, read-out: Ki (2A)
Protocol: as §1
Method (c): For the binding to the 5-HT2A receptor the 5-HT2A receptors were radiolabeled with [^125I]-DOI. The affinity of the compounds for 5-HT2A receptors in a CHO cell line was determined according to the procedure of D. J. McKenna and S. J. Peroutka, J. Neurosci., 1989, 9, 3482–90.

5-HT2A receptor [4] = target: T2, 5-HT2A receptor; assay: Functional activity, FLIPR calcium assay, h5-HT2A; type: cell-based; parameters: expressed in transfected cells; host or cells: CHO cells; conditions: for EC50: CHO cells expressing human 5-HT2A, FLIPR; for h5-HT2A Rel. Eff.: relative to response of 10 μM 5-HT (defined as 100%)
Protocol: as §2

human 5-HT2B receptors = target: T3, human 5-HT2B receptors (Homo sapiens, UniProt P41595); assay: Binding to 5-HT2B receptor, [3H]-5-HT, Method (b); conditions: human 5-HT2B in CHO cell line, read-out: Ki (2B)
T3 construct: expressed in transfected cells; host or cells: CHO cell line
Protocol: as §1
Method (b): For the binding to the 5-HT2B receptor the 5-HT2B receptors were radiolabeled with [^3H]-5-HT. The affinity of the compounds for human 5-HT2B receptors in a CHO cell line was determined according to the procedure of K. Schmuck, C. Ullmer, P. Engels and H. Lubbert, FEBS Lett., 1994, 342, 85–90.

T3 sequence (P41595 whole entry): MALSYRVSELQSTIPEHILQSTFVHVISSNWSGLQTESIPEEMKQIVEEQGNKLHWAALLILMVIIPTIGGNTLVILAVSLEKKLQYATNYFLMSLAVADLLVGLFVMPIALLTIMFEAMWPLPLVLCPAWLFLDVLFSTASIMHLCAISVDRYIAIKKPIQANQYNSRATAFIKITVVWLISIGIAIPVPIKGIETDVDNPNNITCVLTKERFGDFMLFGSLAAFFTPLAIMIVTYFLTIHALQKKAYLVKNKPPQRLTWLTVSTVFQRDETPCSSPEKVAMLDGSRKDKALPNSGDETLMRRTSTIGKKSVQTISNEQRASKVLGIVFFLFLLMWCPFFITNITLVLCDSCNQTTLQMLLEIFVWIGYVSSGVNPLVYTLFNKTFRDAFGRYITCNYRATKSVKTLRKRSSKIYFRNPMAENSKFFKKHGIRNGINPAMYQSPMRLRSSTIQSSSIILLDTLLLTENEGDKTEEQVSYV
T2 sequence (P28223 whole entry): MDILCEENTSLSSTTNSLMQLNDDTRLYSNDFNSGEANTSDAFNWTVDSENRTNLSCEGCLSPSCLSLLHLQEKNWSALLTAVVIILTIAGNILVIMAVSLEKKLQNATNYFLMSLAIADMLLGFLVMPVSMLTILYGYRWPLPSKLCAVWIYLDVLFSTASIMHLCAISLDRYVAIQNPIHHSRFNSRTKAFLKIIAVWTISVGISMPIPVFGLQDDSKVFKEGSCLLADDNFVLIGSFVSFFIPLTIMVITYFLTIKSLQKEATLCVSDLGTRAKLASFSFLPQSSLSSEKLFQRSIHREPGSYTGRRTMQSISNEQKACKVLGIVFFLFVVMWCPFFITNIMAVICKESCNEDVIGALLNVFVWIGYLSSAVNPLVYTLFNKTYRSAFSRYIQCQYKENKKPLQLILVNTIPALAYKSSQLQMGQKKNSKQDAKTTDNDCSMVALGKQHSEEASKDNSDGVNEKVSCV

SMILES | Ki (5-HT2C receptor [1]) [nM] | EC50 (5-HT2C receptor [2]) [nM] | h5-HT2C Rel. Eff. (5-HT2C receptor [2]) [%] | Ki (5-HT2A receptor [3]) [nM] | EC50 (5-HT2A receptor [4]) [nM] | h5-HT2A Rel. Eff. (5-HT2A receptor [4]) [%] | Ki (human 5-HT2B receptors) [nM]
CO[C@H](C)c1nc2c(cc1Cl)C[C@@H]1CNC[C@@H](C)N21 [Example 46, (4R,9aR)-7-Chloro-6-(1-(R)-methoxy-ethyl)-4-methyl-1,2,3,4,9,9a-hexahydro-2,4a,5-triaza-fluorene] | 9 | 13 | 100 | 195 | 273 | 50 | 84
Cc1c(F)cnc2c1C[C@@H]1CNC[C@@H](C)N21 [Example 80, (4R,9aR)-7-Fluoro-4,8-dimethyl-1,2,3,4,9,9a-hexahydro-2,4a,5-triaza-fluorene] | 6 | 13 | 98 | 86 | 178 | 56 | 87
C[C@@H]1CNC[C@H]2Cc3cc(Cl)c(C(F)F)nc3N21 [Example 23, (4R,9aR)-7-Chloro-6-difluoromethyl-4-methyl-1,2,3,4,9,9a-hexahydro-2,4a,5-triaza-fluorene] | 8 | 14 | 97 | 25 | 70 | 56 | 12

Reference: patent publication US7208494B2, “5HT2c receptor agonists” (Hoffmann-La Roche Inc., priority 2003, dated 2007)
